From patent US20070191292A1, “Antimycotic rhamnolipid compositions and related methods of use” (priority 2006, published 2007)
Read-outs that look alike come from different tables or passages of the source. Bridge positions count the residues as written; N and C are the ends. Square brackets hold non-standard residues; d marks the D form. Peptide text beside a SMILES is read from it. * marks the point of attachment. Asp(3S-OH) = N[C@H](C(=O)O)[C@H](O)C(=O)O; Thr(4-Cl) = N[C@H](C(=O)O)[C@H](O)CCl; X1 = CCCCCCCCC[C@@H](O)CC(=O)*; dDab = NCC[C@@H](N)C(=O)O; Dab = NCC[C@H](N)C(=O)O; Dhb = C/C=C(\N)C(=O)O

What was measured:
Aspergillus flavus = assay type: cell-based; settings: SRE alone (0.5 mg/ml solution, diluted)
Text: (§1) The checkerboard method is used frequently to evaluate antimicrobial combinations in vitro (Lorian, V., M. D. 1996. Antibiotics in Laboratory Medicine, 4th ed.). The tests were easily performed at the laboratory level by using the microdilution method. The results obtained from this study provided a better understanding of the nature of the interaction between SRE and rhamnolipids.
(§2) The checkerboard method is described by Sabath et al. (Sabath, L. D. 1967. Synergy of antibacterial substances by apparently known mechanisms. Antimicrob. Agents Chemother. 7:210-7.) and Garrod et al. (Garrod L. P. and P. M. Waterworth. 1962. Methods of testing combined antibiotic bactericidal action and the significance of the results. J. Clin. Pathol. 15:328-38.). A 96-well plate was used to determine the fractional inhibitory concentrations (FICs). Serial twofold dilutions of SRE and rhamnolipids were prepared separately. Then 25 μl of different concentrations of syringomycin are added in a vertical orientation and the rhamnolipids were added in horizontal orientation. The final volume of the well contained 50 μl of the subject composition and 50 μl of the tested culture. The plate was incubated at 35° C. for 24-72 h. and the FICs were calculated using the equation: (A/MICa)+(B/MICb)=FICa+FICb=FIC index, where A and B are concentrations of SRE and rhamnolipids, MICa and MICb are the minimum inhibitory concentrations, and FICa and FICb are the fractional inhibitory concentrations of SRE and rhamnolipids, respectively.
(§3) SRE and Rh solutions were prepared, at the concentrations shown (mg/ml), then diluted and used to determine the minimum inhibitory concentration (MIC, μg/ml) of each, alone and in composition with the other (SYRA and SYRA2). […] Beneficial effects against the other organisms tested are evidenced by examination and analysis of the corresponding data.

Penicillium sp2 = assay type: cell-based; settings: SRE alone (0.5 mg/ml solution, diluted)
Text: as §1, §2, §3

Rhizoctonia solani = assay type: cell-based; settings: SRE alone (0.5 mg/ml solution, diluted)
Text: as §1, §2, §3

Rhodotorula pilimanae = assay type: cell-based; settings: SRE alone (0.5 mg/ml solution, diluted)
Text: as §1, §2, §3

Penicillium sp1 = assay type: cell-based; settings: SRE alone (0.5 mg/ml solution, diluted)
Text: as §1, §2, §3

Botrytis sp = assay type: cell-based; settings: SRE alone (0.5 mg/ml solution, diluted)
Text: as §1, §2, §3

Candida albicans = assay type: cell-based; settings: SRE alone (0.5 mg/ml solution, diluted)
Text: as §1, §2, §3

Fusarium oxysporum = assay type: cell-based; settings: SRE alone (0.5 mg/ml solution, diluted)
Text: as §1, §2, §3

Rhizopus stonifer = assay type: cell-based; settings: SRE alone (0.5 mg/ml solution, diluted)
Text: as §1, §2, §3

Cladosporium sp = assay type: cell-based; settings: SRE alone (0.5 mg/ml solution, diluted)
Text: as §1, §2, §3

BY4741 = assay type: cell-based, Saccharomyces cerevisiae
Description: (§4) Disk diffusion methods similar to those described by the NCCLS protocols for antifungal testing (Washington, G. L. W. a. J. A. 1995. Antibacterial Susceptibility Tests: Dilution and Disk Diffusion Methods, p. 1327-1341. in P. R. Murray (ed.), Manual of Clinical Microbiology, sixth ed.) were used. FIGS. 2(A) through 2(D) illustrate typically observed result assessments for antimicrobial combinations using the disk diffusion method.
(§5) Tested fungi, utilized in the examples that follow, were grown in RPMI Medium and adjusted to 5×10^4 CFU/ml, and transferred onto solid agar medium of the appropriate growth medium. The cultures were spread over the surface as a thin film. Four millimeter-diameter sterilized paper disks were deposited on the surface and syringomycin E and rhamnolipids were applied on disk 1 and disk 2, respectively (in approximately about 7 to about 10 μl aliquots). The distance between the disks was equal to the sum of radii of zones of inhibition of the drugs applied alone. The plates were incubated at approximately 35° C. for approximately 24-72 h.
(§6) SYRA was obtained by mixing SRE and rhamnolipids at different relative concentrations. SYRA was tested against a variety of yeasts and fungi and the zone of inhibition was measured as described with reference to Examples 2A and 2B.

[1] = tested on: Saccharomyces cerevisiae SRE resistant mutant strains Δsmr1,Δsyr2,Δipt1, Δelo2,Δelo3,Δfah1; assay: Replica plate growth inhibition, sphingolipid and sterol biosynthetic mutants; assay type: cell-based; settings: parent strains 8A-1B, W303, BY4741
Text: To investigate the mechanism of action of SYRA, Saccharomyces cerevisiae sphingolipid and sterol biosynthetic mutants were used. Saccharomyces cerevisiae parent strains 8A-1B, W303, BY4741 and SRE resistant mutant strains Δsmr1,Δsyr2,Δipt1, Δelo2,Δelo3,Δfah1 were utilized, as described previously (Stock, S. D., H. Hama, J. A. Radding, D. A. Young, and J. Y. Takemoto. 2000. Syringomycin E inhibition of Saccharomyces cerevisiae: requirement for biosynthesis of sphingolipids with very-long-chain fatty acids and mannose- and phosphoinositol-containing head groups. Antimicrob. Agents Chemother. 44:1174-80.). For growth inhibition, a replica plate method was used (Hama, J., D. A. Young, J. A. Radding, D. Ma, J. Tang, S. D. Stock, and J. Y. Takemoto. 2000. Requirement of sphingolipid alpha-hydroxylation for fungicidal action of syringomycin E. FEBS Lett. 478:26-8). Fresh cells were replica plated onto yeast extract-peptone-dextrose (YPD) agar containing different concentrations of SYRA. Growth with and without SYRA addition were compared to determine relative sensitivity.

8A-1B = assay: Disk diffusion, zone of inhibition; assay type: cell-based, Saccharomyces cerevisiae
Description: as §4, §5

W303C = assay: Disk diffusion, zone of inhibition; assay type: cell-based, Saccharomyces cerevisiae
Description: as §4, §5

R.pilimanae = assay type: cell-based, Rhodotorula pilimanae
Description: as §4, §5, §6

[2] = tested on: a variety of yeast and fungi; assay: Antifungal activities against a variety of yeast and fungi (Table 1); assay type: cell-based; settings: component alone; Tables 1 and 2
Text: as §1
as §2, with “Then 25 μl of different concentrations of syringomycin are added in a vertical orientation and the rhamnolipids were added in horizontal orientation. The final volume of the well contained 50 μl of the subject composition and 50 μl of the tested culture.” left out, “respectively. […]” for “respectively.”

How did the MIC (Aspergillus flavus) turn out when `C/C=C1\NC(=O)[C@H](Cc2ccccc2)NC(=O)[C@H](CCCNC(=N)N)NC(=O)[C@H](CCN)NC(=O)[C@@H](CCN)NC(=O)[C@@H](CO)NC(=O)[C@@H](NC(=O)C[C@H](O)CCCCCCCCC)COC(=O)[C@H]([C@H](O)CCl)NC(=O)[C@H]([C@H](O)C(=O)O)NC1=O` [SRE, Syringomycin E] (X1-S[dS][dDab][Dab]RF[Dhb][Asp(3S-OH)][Thr(4-Cl)]; ester 1-C) was run?
The MIC was 7.8 µg/mL.

What about the MIC (Penicillium sp2) of the same molecule?
The MIC was 7.8 µg/mL.

And the MIC (Rhizoctonia solani)?
Its MIC is 3.9 µg/mL.

What about the MIC (Rhodotorula pilimanae) of the same molecule?
The MIC was 3.9 µg/mL.

And the MIC (Penicillium sp1)?
Its MIC is 7.8 µg/mL.

What about the MIC (Botrytis sp) of the same molecule?
The MIC was 3.9 µg/mL.

And the MIC (Candida albicans)?
The MIC was 3.9 µg/mL.

And the MIC (Fusarium oxysporum)?
The MIC was 7.8 µg/mL.

What about the MIC (Rhizopus stonifer) of the same molecule?
Its MIC is 7.8 µg/mL.

What about the MIC (Cladosporium sp) of the same molecule?
The MIC was 3.9 µg/mL.

What about the “Zone of Inhibition” value (BY4741; SRE alone 2.4 mg/ml) of the same molecule?
The value was 19.0 mm.

And the “Zone of Inhibition” value (BY4741; SRE alone 5.6 mg/ml)?
Its value is 21.0 mm.

What about the “Zone of Inhibition” value (BY4741; SRE alone 10.3 mg/ml) of the same molecule?
The value was 23.0 mm.

What about the “growth inhibitory activity in mutants compared to wild type” value [1] of the same molecule?
Its value is “less in the mutants as compared to the wild type”.

What about the “Zone of Inhibition” value (8A-1B; SRE alone 2.4 mg/ml) of the same molecule?
The value was 17.5 mm.

And the “Zone of Inhibition” value (8A-1B; SRE alone 5.6 mg/ml)?
The value was 19.0 mm.

And the “Zone of Inhibition” value (8A-1B; SRE alone 10.3 mg/ml)?
The value was 20.0 mm.

What about the “Zone of Inhibition” value (W303C; SRE alone 2.4 mg/ml) of the same molecule?
Its value is 26.0 mm.

And the “Zone of Inhibition” value (W303C; SRE alone 5.6 mg/ml)?
Its value is 28.0 mm.

And the “Zone of Inhibition” value (W303C; SRE alone 10.3 mg/ml)?
The value was 29.0 mm.

What about the “Zone of Inhibition” value (R.pilimanae; SRE alone 2.4 mg/ml) of the same molecule?
The value was 19.0 mm.

And the “Zone of Inhibition” value (R.pilimanae; SRE alone 5.6 mg/ml)?
The value was 21.5 mm.

What about the “Zone of Inhibition” value (R.pilimanae; SRE alone 10.3 mg/ml) of the same molecule?
Its value is 23.0 mm.

What about the “antifungal activities, alone” value [2] of the same molecule?
Its value is “strong activity”.
